Measured values reported in US10227331B2 (priority 2015, dated 2019).
Where two headings read alike, the source gives them in different places.

Assays:
IMP-1 = IMP-1 (Serratia marcescens, UniProt P52699); test: biochemical; format: biochemical
Procedure, shortened: (§1)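 Fluorescence assay of metallo-β-lactamase activity using CCF2-FA, a cephalosporin-linked 7-hydroxycoumarin–fluorescein substrate. Inhibitor, enzyme and substrate were incubated together for 2 hours at 25° C. IC50 came from a 4-parameter fit of inhibition versus inhibitor concentration.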

NDM-1 = NDM-1 (Klebsiella pneumoniae, UniProt C7C422); test: biochemical; format: biochemical; conditions: CCF2-FA substrate, 2 hours at 25° C; read-out: NDM-1 IC50
NDM-1, sequence (C7C422 whole entry, looked up, species assumed): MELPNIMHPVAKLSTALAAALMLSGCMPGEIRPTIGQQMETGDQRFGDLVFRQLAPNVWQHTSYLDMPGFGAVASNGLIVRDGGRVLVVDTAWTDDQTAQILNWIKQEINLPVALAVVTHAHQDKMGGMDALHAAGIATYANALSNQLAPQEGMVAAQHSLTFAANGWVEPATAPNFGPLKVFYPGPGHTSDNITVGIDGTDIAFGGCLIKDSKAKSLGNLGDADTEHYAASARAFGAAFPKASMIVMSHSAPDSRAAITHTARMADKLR
Procedure, shortened: as §1

VIM-1 = VIM-1 (Pseudomonas aeruginosa (strain ATCC 15692 / DSM 22644 / CIP 104116 / JCM 14847 / LMG 12228 / 1C / PRS 101 / PAO1), UniProt A0A0F7KYQ8); test: biochemical; conditions: CCF2-FA substrate, 2 hours at 25° C
Procedure, shortened: as §1

[1] = system: Klebsiella pneumoniae expressing VIM-1 (IHMA599644); format: cell-based; conditions: with imipenem 1 μg/ml, 95% inhibition of bacterial growth; for Klebsiella pneumoniae MITC95: VIM-1 (IHMA599644)
Procedure, shortened: (§2)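 Clinical strains grown overnight on blood agar, then diluted 1:100 in 1.1× CAMHB and exposed to test compound with imipenem at 1 μg/ml. Incubation was 22–24 h at 35° C; growth was read by absorbance to find the compound concentration restoring imipenem susceptibility.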

[2] = system: Escherichia coli expressing NDM-1 (CLB30005, CLB30016); format: cell-based; conditions: with imipenem 1 μg/ml, 95% inhibition of bacterial growth; for Escherichia coli MITC95: NDM-1 (CLB30016)
Procedure, shortened: as §2

[3] = system: Serratia marcescens expressing IMP-1 (CL5741); format: cell-based; conditions: with imipenem 1 μg/ml, 95% inhibition of bacterial growth; for Serratia marcescens MITC95: IMP-1 (CL5741)
Procedure, shortened: as §2

[4] = system: P. aeruginosa expressing IMP-1, efflux− (MB9799); test: Efflux: concentration of MBL inhibitor which restores susceptibility to imipenem; format: cell-based, Pseudomonas aeruginosa; conditions: imipenem at 2 μg/mL, in the presence of a class A, C, D serine β-lactamase inhibitor closely related to relebactam
Text: (§3) The strain background is Pseudomonas aeruginosa PAO1.

[5] = system: P. aeruginosa expressing IMP-1, efflux+ (MB9798); format: cell-based, Pseudomonas aeruginosa; conditions: for P. aeruginosa expressing IMP-1, efflux+ (MB9798) MITC95: imipenem at 2 μg/mL, in the presence of a class A, C, D serine β-lactamase inhibitor closely related to relebactam; for Efflux ratio: ratio MITC95 PA_9798/MITC95 PA_9799
Text: as §3

[6] = CCF2-FA substrate, 2 hours at 25° C, read-out: IMP-1 IC50

IMP-1, sequence (P52699 whole entry, looked up, species assumed): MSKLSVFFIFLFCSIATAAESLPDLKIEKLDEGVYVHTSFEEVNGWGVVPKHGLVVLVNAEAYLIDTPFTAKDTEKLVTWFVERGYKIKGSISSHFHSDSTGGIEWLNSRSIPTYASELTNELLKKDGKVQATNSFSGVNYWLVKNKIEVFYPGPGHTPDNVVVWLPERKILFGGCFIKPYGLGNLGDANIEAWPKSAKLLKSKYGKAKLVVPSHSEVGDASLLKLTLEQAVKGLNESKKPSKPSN

## Nc1nc2cccc(-c3ccc(S(=O)(=O)[C@H]4CCNC4)c(S(N)(=O)=O)c3-c3nn[nH]n3)c2[nH]1 [Example 182, 3-(2-amino-3H-benzo[d]imidazol-4-yl)-6-((S)-pyrrolidin-3-ylsulfonyl)-2-(2H-tetrazol-5-yl)benzenesulfonamide]
IMP-1; [6]
  IC50: 979 pM
NDM-1
  IC50: 154 pM
VIM-1
  IC50: 210 pM
[1]
  Klebsiella pneumoniae expressing VIM-1 (IHMA599644) MITC95: 0.8906 µM
[2]
  Escherichia coli expressing NDM-1 (CLB30016) MITC95: 0.25 µM
[3]
  Serratia marcescens expressing IMP-1 (CL5741) MITC95: 0.6406 µM
[4]
  P. aeruginosa expressing IMP-1, efflux− (MB9799) MITC95: 0.6406 µM
[5]
  P. aeruginosa expressing IMP-1, efflux+ (MB9798) MITC95: 0.6406 µM
  Efflux ratio: 1.00

## Nc1nc2c(-c3ccc(S(=O)(=O)[C@@H]4CN[C@H](CO)C4)c(S(N)(=O)=O)c3-c3nn[nH]n3)cccc2[nH]1 [Example 350, 3-(2-Amino-1H-benzo[d]imidazol-4-yl)-6-(((3S,5S)-5-(hydroxymethyl)pyrrolidin-3-yl)sulfonyl)-2-(2H-tetrazol-5-yl)benzenesulfonamide]
IMP-1; [6]
  IC50: 982 pM
NDM-1
  IC50: 250 pM
VIM-1
  IC50: 674 pM
[1]
  Klebsiella pneumoniae MITC95: 3.125 µM
[2]
  Escherichia coli MITC95: 0.7813 µM
[3]
  Serratia marcescens MITC95: 1.563 µM
[4]
  P. aeruginosa expressing IMP-1, efflux− (MB9799) MITC95: 1.563 µM
[5]
  P. aeruginosa expressing IMP-1, efflux+ (MB9798) MITC95: 1.563 µM
  Efflux ratio: 1.00

## CS(=O)(=O)c1ccc(-c2cccc3cn[nH]c23)c(-c2nn[nH]n2)c1S(N)(=O)=O [Example 191, 3-(1H-indazol-7-yl)-6-(methylsulfonyl)-2-(2H-tetrazol-5-yl)benzenesulfonamide]
IMP-1; [6]
  IC50: 210 pM
NDM-1
  IC50: 436 pM
VIM-1
  IC50: 298 pM
[1]
  Klebsiella pneumoniae expressing VIM-1 (IHMA599644) MITC95: 6.25 µM
[2]
  Escherichia coli expressing NDM-1 (CLB30016) MITC95: 3.125 µM
[3]
  Serratia marcescens expressing IMP-1 (CL5741) MITC95: 3.125 µM
[4]
  P. aeruginosa expressing IMP-1, efflux− (MB9799) MITC95: 1.563 µM
[5]
  P. aeruginosa expressing IMP-1, efflux+ (MB9798) MITC95: 25 µM
  Efflux ratio: 15.99

## NS(=O)(=O)c1c(S(=O)(=O)C2CNC2)ccc(-c2cccc3[nH]c(=O)[nH]c23)c1-c1nnn[nH]1 [Example 299, 6-(azetidin-3-ylsulfonyl)-3-(2-oxo-2,3-dihydro-1H-benzo[d]imidazol-4-yl)-2-(1H-tetrazol-5-yl) benzenesulfonamide]
IMP-1; [6]
  IC50: 1450 pM
NDM-1
  IC50: 188 pM
VIM-1
  IC50: 302 pM
[1]
  Klebsiella pneumoniae MITC95: 6.25 µM
[2]
  Escherichia coli MITC95: 3.125 µM
[3]
  Serratia marcescens MITC95: 3.125 µM
[4]
  P. aeruginosa expressing IMP-1, efflux− (MB9799) MITC95: 3.125 µM
[5]
  P. aeruginosa expressing IMP-1, efflux+ (MB9798) MITC95: 3.125 µM
  Efflux ratio: 1.00

## Cn1ncc2c(-c3ccc(S(=O)(=O)C4CNC4)c(S(N)(=O)=O)c3-c3nnn[nH]3)cccc21.O=C(O)C(F)(F)F [Example 123, 3-((4-(1-methyl-1H-indazol-4-yl)-2-sulfamoyl-3-(1H-tetrazol-5-yl)phenyl)sulfonyl)azetidin-1-ium 2,2,2-trifluoroacetate]
IMP-1; [6]
  IC50: 1140 pM
NDM-1
  IC50: 168 pM
VIM-1
  IC50: 215 pM
[1]
  Klebsiella pneumoniae expressing VIM-1 (IHMA599644) MITC95: 3.125 µM
[2]
  Escherichia coli expressing NDM-1 (CLB30016) MITC95: 1.563 µM
[3]
  Serratia marcescens expressing IMP-1 (CL5741) MITC95: 3.125 µM
[4]
  P. aeruginosa expressing IMP-1, efflux− (MB9799) MITC95: 1.563 µM
[5]
  P. aeruginosa expressing IMP-1, efflux+ (MB9798) MITC95: 25 µM
  Efflux ratio: 15.99

## C[C@H](CN)S(=O)(=O)c1ccc(-c2cccc3c2nc(N)n3C)c(-c2nn[nH]n2)c1S(N)(=O)=O [Example 279, 3-(2-amino-1-methyl-1H-benzo[d]imidazol-4-yl)-6-((R)-1-aminopropan-2-ylsulfonyl)-2-(2H-tetrazol-5-yl)benzenesulfonamide]
IMP-1; [6]
  IC50: 695 pM
NDM-1
  IC50: 806 pM
VIM-1
  IC50: 470 pM
[1]
  Klebsiella pneumoniae MITC95: 1.563 µM
[2]
  Escherichia coli MITC95: 0.3906 µM
[3]
  Serratia marcescens MITC95: 1.563 µM
[4]
  P. aeruginosa expressing IMP-1, efflux− (MB9799) MITC95: 0.7813 µM
[5]
  P. aeruginosa expressing IMP-1, efflux+ (MB9798) MITC95: 3.125 µM
  Efflux ratio: 4.00

## Cn1c(N)nc2c(-c3ccc(S(=O)(=O)CCN)c(S(N)(=O)=O)c3-c3nn[nH]n3)cccc21 [Example 79, 3-(2-amino-1-methyl-1H-benzo[d]imidazol-4-yl)-6-(2-aminoethylsulfonyl)-2-(2H-tetrazol-5-yl)benzenesulfonamide]
IMP-1
  IC50: 241 pM
NDM-1
  IC50: 354 pM
VIM-1
  IC50: 327 pM
[1]
  Klebsiella pneumoniae expressing VIM-1 (IHMA599644) MITC95: 1.281 µM
[2]
  Escherichia coli expressing NDM-1 (CLB30016) MITC95: 0.25 µM
[3]
  Serratia marcescens expressing IMP-1 (CL5741) MITC95: 0.8906 µM
[4]
  P. aeruginosa expressing IMP-1, efflux− (MB9799) MITC95: 0.6406 µM
[5]
  P. aeruginosa expressing IMP-1, efflux+ (MB9798) MITC95: 0.8906 µM
  Efflux ratio: 1.39
